Source: US20070224253A1, “Transdermal Delivery of Meptazinol” (Shire Pharmaceuticals Inc., priority 2005, published 2007)
Values after ≈ are worked out from the molar mass of the structure shown. Values joined by “and” are separate entries in the source; they are usually repeats but may differ in a detail not shown here. Equal entries are not always repeated. “Also recorded” adds a separate entry of the source. Structures can show the parent of a compound that is named as a salt. Marks after values point to notes of the source that are not given here.

Tests used:
[1] = Transdermal permeation through human skin in Franz cell in vitro apparatus; details: for Skin flux / permeation compared with other forms (in words): Franz cell; for Flux: individual Franz cell/donor; for Flux / Mean flux ± sd: vehicle 2% oleic acid: 2% dimethyl isosorbide: 96% propylene glycol; for Mean flux ± sd: mean over donors
[2] = Saturated solubility in potential delivery vehicle (oleic acid/dimethyl isosorbide/propylene glycol); details: in 2% oleic acid: 2% dimethyl isosorbide: 96% propylene glycol; for solubility: 2% oleic acid: 2% dimethyl isosorbide: 96% propylene glycol, 32 °C, organic solvent or mixture, thermodynamic from solid, Solubility at 32° C.
[3] = Yellow discoloration of the meptazinol gel on standing, effect of antioxidants; type: physicochemical; details: antioxidant included in meptazinol gel; BHT 0.02-0.05%, ascorbic acid 0.05%
[4] = cited from earlier work
Aqueous solubility = type: physicochemical; details: aqueous solution
[5] = listed as M HCl (1), hydrochloride
[6] = listed as M HCl (2), hydrochloride
[7] = estimated from visual assessment only

Compound: CCC1(c2cccc(O)c2)CCCCN(C)C1 (stereo not drawn) [Meptazinol hydrochloride, reference compound]
- Skin flux / permeation compared with other forms (in words) ([1]; listed as hydrochloride, hydrochloride): more rapidly absorbed
- Skin flux / permeation compared with other forms (in words) ([1]; listed as meptazinol hydrochloride, hydrochloride): much better permeant than the maleate; also recorded: higher flux rate than the camsylate; also recorded: substantially greater flux than the free base; also recorded: several times better than the meptazinol free base
- Flux [1, 5]: 135.7 ug/cm^2/h and 218.0 ug/cm^2/h and 132.6 ug/cm^2/h and 197.1 ug/cm^2/h and 194.0 ug/cm^2/h and 162.5 ug/cm^2/h
- Flux [1, 6]: 66.5 ug/cm^2/h and 222.6 ug/cm^2/h and 213.4 ug/cm^2/h (2×)
- Mean flux ± sd [1, 5]: 173.3 ± 35.2 ug/cm^2/h
- Mean flux ± sd [1, 6]: 179.0 ± 75.1 ug/cm^2/h
- solubility ([2]; measured by HPLC): 78 mg/mL

Compound: Cc1cc(C(C)(C)C)c(O)c(C(C)(C)C)c1 [butylated hydroxy toluene]
- Effect on yellow discoloration of the gel [3]: completely eliminated

Compound: COc1ccc(O)c(C(C)(C)C)c1 [butylated hydroxy anisole]
- Effect on yellow discoloration of the gel [3]: did not

Compound: O=C1O[C@H]([C@@H](O)CO)C(O)=C1O [Ascorbic acid]
- Effect on yellow discoloration of the gel [3]: some reduction

Compound: Meptazinol tosylate
- Skin flux / permeation compared with other forms (in words) [1]: less effective in improving flux
- Flux ([1]; listed as M tosylate): 158.8 ug/cm^2/h and 165.0 ug/cm^2/h and 90.9 ug/cm^2/h and 39.6 ug/cm^2/h and 273.7 ug/cm^2/h and 87.4 ug/cm^2/h
- Mean flux ± sd [1]: 135.9 ± 82.5 ug/cm^2/h
- Solubility at 32° C. [2, 7]: ˜140** mg/ml

Compound: Oc1cccc(O)c1O [pyrogallol]
- Effect on yellow discoloration of the gel [3]: did not

Compound: CCC1(c2cccc(O)c2)CCCCN(C)C1 (stereo not drawn) [Meptazinol free base, Meptazinol]
- Plasma half-life ([4]; in vivo): 1.5 to 2.0 h
- Fraction of an oral dose removed by first pass metabolism through the liver ([4]; oral): up to 98.1%
- Oral bioavailability, reported mean values ([4]; oral): 4-9%
- Skin flux / permeation compared with other forms (in words) [1]: unexpectedly poor flux in comparison to the various salt forms
- solubility [2, 7]: ~20 mg/mL (≈ 85.7 mM)
- solubility (Aqueous solubility): 0.17 mg/mL (≈ 0.729 mM)

Compound: Cc1c(C)c2c(c(C)c1O)CC[C@@](C)(CCC[C@H](C)CCC[C@H](C)CCCC(C)C)O2 [alpha tocopherol]
- Effect on yellow discoloration of the gel [3]: did not

Compound: Meptazinol trifluoroacetate
- Skin flux / permeation compared with other forms (in words) [1]: more rapidly absorbed
- Flux ([1]; listed as M TFA): 29.1 ug/cm^2/h and 422.2 ug/cm^2/h and 163.8 ug/cm^2/h and 282.3 ug/cm^2/h
- Mean flux ± sd [1]: 224.4 ± 167.6 ug/cm^2/h
- Solubility at 32° C. ([2]; measured by HPLC): 170* mg/ml

Compound: CC1(C)C2CCC1(CS(=O)(=O)O)C(=O)C2.CCC1(c2cccc(O)c2)CCCCN(C)C1 (stereo not drawn) [Meptazinol camsylate]
- Skin flux / permeation compared with other forms (in words) [1]: less effective in improving flux
- Flux ([1]; listed as M camsylate): 78.1 ug/cm^2/h and 110.9 ug/cm^2/h and 27.3 ug/cm^2/h and 45.1 ug/cm^2/h and 204.2 ug/cm^2/h and 9.5 ug/cm^2/h
- Mean flux ± sd [1]: 79.2 ± 71.2 ug/cm^2/h
- Solubility at 32° C. [2, 7]: ˜250** mg/ml

Compound: Meptazinol maleate
- Flux ([1]; listed as M maleate): 41.3 ug/cm^2/h and 91.3 ug/cm^2/h and 85.3 ug/cm^2/h and 93.9 ug/cm^2/h
- Mean flux ± sd [1]: 78.0 ± 24.7 ug/cm^2/h
- Solubility at 32° C. ([2]; measured by HPLC): 105* mg/ml
